Experimental data as given in patent publication US8092833B2, “Compositions containing inclusion complexes” (California Institute of Technology, priority 2000, dated 2012).
Where a SMILES comes first, the peptide text is derived from it. The star is where a group is joined. Adamantane1carbonyl = O=C(C12CC3CC(CC(C3)C1)C2)*; {FITC} = fluorescein (FITC) label; Ad = adamantane

How the values were obtained:
[1] = Zeta potential of Tf-modified polyplexes (Example 58); format: physicochemical; conditions: 12/DNA 3+/−
Experimental: An equivolume aliquot of 12 was added to an aliquot of plasmid DNA ([…], 0.1 mg/mL in water) at a 3+/−charge ratio to form the particulate composite. Holo-transferrin or holo-Tf-PEG-Ad (17 mg/mL in water) was then added to the particulate composite. The particles were diluted by the addition of 1.2 mL of water and zeta potential determined by measurements on a ZetaPals dynamic light scattering instrument (Brookhaven Instruments). The unmodified holo-transferrin associates with the particulate composites by electrostatic interactions. […] The holo-Transferrin-PEG-Ad (designated Tf-PEG-Ad in FIG. 25) is likely to associate to the particulate composites by both electrostatic and inclusion compound interactions. Therefore, there is a higher association of holo-Tf-PEG-Ad with the particles, as evidenced by the continued decrease in zeta potential of the modified particles with higher concentrations of holo-Tf-PEG-Ad. At 2 nmol Tf/μg, particulate composites modified with holo-Tf-PEG-Ad are negatively charged (zeta potential ˜−7 mV).

BHK-21 cells = assay: Toxicity of GALA / GALA-Ad compositions by total protein of cell lysates (Example 35); format: cell-based; conditions: peptide added to 12/pGL-CV3 5+/−, 48 hours after transfection
Experimental: The toxicity of GALA and GALA-Ad modified compositions was determined by measuring the protein concentrations of the cell lysates obtained in the transfection experiments. BHK-21 cells were transfected with 1 μg of pGL-CV3 complexed with 12 at 5+/−charge ratio. Prior to transfection, various ratios of GALA and GALA-Ad were added to the complexes. Cell survival for transfections in the presence of GALA (solid bars) and GALA-Ad (white bars) was determined by assaying for total protein concentrations 48 hours after transfection and normalizing each sample with protein levels for untransfected cells. The protein concentrations are reported as the mean±SD of three replicates were averaged and divided by the average protein concentration of cells transfected with 12/pGL-CV3 compositions alone and reported as fraction cell survival (FIG. 7).

[2] = Zeta potential of particulate composites modified with PEG-peptide-Ad agents (Example 49); format: physicochemical; conditions: 12/pCMV-Luc, 2 CD:1 PEG
HepG2 cells = assay: Galactose-mediated luciferase transfection of HepG2 hepatoma cells (Example 49); format: cell-based; conditions: for transfection of HepG2 cells: 12/pCMV-Luc, 2 CD:1 PEG
Experimental: HepG2 cells were plated in 24-well plates at 50,000 cells/well. 1 μg of pCMV-Luc was contacted with an equal volume of 12 and modified as indicated below. Modification with PEG-containing complexing agents was done at a 2:1 CD:PEG ratio, where CD represents the cyclodextrins in 12.
200 μL of Optimem was added to each transfection mixture and transferred to each well of cells. 4 hours after transfection, 800 μL of complete media was added to each well. The media was removed, cells washed with PBS, and 1 mL of complete media added to each well 24 hours after transfection. 48 hours after transfection cells were washed with PBS, lysed and analyzed for luciferase activity. The described transfection procedure was also executed in the presence of 1 mM glucose or 1 mM galactose as a competitive inhibitor.

HUH-7 cells = assay: FITC-Oligo uptake by HUH-7 cells after post-complexation pegylation, FACS (Example 41); format: cell-based; conditions: 3+/− charge ratio, 1:1 PEG to cyclodextrin, 15 minute incubation
Experimental: Step 1: Transfection mixtures were prepared as follows: An equal volume of cationic, 12 was added to 3 μg of FITC-Oligos (0.1 μg/μL in water) at a 3+/−charge ratio of polymer to DNA. To the complexes was added free PEG or Ad-PEG5000 (as prepared in Example 40) at a 1:1 PEG to cyclodextrin ratio.
Step 2. HUH-7 cells were plated at 3×10^5 cells/well in 6 well plates and maintained in 4 mLs of DMEM+10% FBS+Antibiotic/Antimycotic for 24 hours. After 24 hours, the cells were washed with PBS and 1 mL of Optimem containing the transfection mixtures of Step 1 was added to the cells. After a 15 minute incubation, the transfection media was removed, the cells were washed with PBS and 1 mL of Optimem was added to each well. The cells were incubated for another 30 minutes at 37° C. The cells were then washed with Cell Scrub Buffer (Gene Therapy Systems) to remove surface-associated complexes and PBS and then detached from the wells by trypsin treatment. The cells were then prepared and analyzed by FACS analysis for FITC-Oligo uptake. The modification of the complexes by Ad-PEG5000 decreases uptake of the FITC-Oligo/polymer complexes.

holo-transferrin: iron-loaded unmodified transferrin
particle charge ([1]; 2 nmol Tf/μg DNA): approach neutrality

CC(C)C[C@H](NC(=O)[C@H](C)NC(=O)[C@H](CCC(=O)O)NC(=O)[C@H](CC(C)C)NC(=O)[C@H](C)NC(=O)[C@H](CCC(=O)O)NC(=O)[C@H](C)NC(=O)[C@H](CC(C)C)NC(=O)[C@H](C)NC(=O)[C@H](CCC(=O)O)NC(=O)[C@H](C)NC(=O)[C@H](CC(C)C)NC(=O)[C@H](Cc1c[nH]cn1)NC(=O)[C@H](CCC(=O)O)NC(=O)[C@H](C)NC(=O)[C@H](CC(C)C)NC(=O)[C@H](C)NC(=O)[C@H](CCC(=O)O)NC(=O)[C@H](C)NC(=O)[C@H](CC(C)C)NC(=O)[C@H](C)NC(=O)[C@H](CCC(=O)O)NC(=O)[C@H](C)NC(=O)[C@H](CC(C)C)NC(=O)[C@H](C)NC(=O)[C@H](C)NC(=O)[C@H](CCC(=O)O)NC(=O)[C@H](Cc1c[nH]c2ccccc12)NC(=O)C12CC3CC(CC(C3)C1)C2)C(=O)N[C@@H](C)C(=O)N[C@@H](C)C(=O)O [GALA-Ad] (Adamantane1carbonyl-WEAALAEALAEALAEHLAEALAEALEALAA-OH)
toxicity to BHK-21 cells (fraction cell survival) (BHK-21 cells): no observable toxicity

Tf-PEG-Ad: human transferrin coupled via lysine groups to Vinylsulfone-PEG3400-Ad
zeta potential ([1]; 2 nmol Tf/μg): ~−7 mV

PEG5000-CAEAEAEAE-Ad [PEG-Pep-Ad]
zeta potential (sign) [2]: negative
transfection of HepG2 cells (HepG2 cells): do not readily transfect cells

Galactose-PEG3400-CAEAEAEAE-Ad [Gal-PEG-Pep-Ad]
transfection in the presence of free galactose (HepG2 cells; 1 mM galactose as competitive inhibitor): inhibited
transfection of HepG2 cells (HepG2 cells): enhanced transfection

CC(C)C[C@H](NC(=O)[C@H](C)NC(=O)[C@H](CCC(=O)O)NC(=O)[C@H](CC(C)C)NC(=O)[C@H](C)NC(=O)[C@H](CCC(=O)O)NC(=O)[C@H](C)NC(=O)[C@H](CC(C)C)NC(=O)[C@H](C)NC(=O)[C@H](CCC(=O)O)NC(=O)[C@H](C)NC(=O)[C@H](CC(C)C)NC(=O)[C@H](Cc1c[nH]cn1)NC(=O)[C@H](CCC(=O)O)NC(=O)[C@H](C)NC(=O)[C@H](CC(C)C)NC(=O)[C@H](C)NC(=O)[C@H](CCC(=O)O)NC(=O)[C@H](C)NC(=O)[C@H](CC(C)C)NC(=O)[C@H](C)NC(=O)[C@H](CCC(=O)O)NC(=O)[C@H](C)NC(=O)[C@H](CC(C)C)NC(=O)[C@H](C)NC(=O)[C@H](C)NC(=O)[C@H](CCC(=O)O)NC(=O)[C@@H](N)Cc1c[nH]c2ccccc12)C(=O)N[C@@H](C)C(=O)N[C@@H](C)C(=O)O [GALA, WEAALAEALAEALAEHLAEALAEALEALAA, reference compound] (H-WEAALAEALAEALAEHLAEALAEALEALAA-OH)
toxicity to BHK-21 cells (fraction cell survival) (BHK-21 cells): no observable toxicity

Glucose-PEG3400-CAEAEAEAE-Ad [Glu-PEG-Pep-Ad]
transfection of HepG2 cells (HepG2 cells): do not readily transfect cells

5′-FITC-ACT GCT TAC CAG GGA TTTCAG TGC A-3′ (DNA ACTGCTTACCAGGGATTTCAGTGCA; DNA, 5' {FITC}, backbone and methylation of C not given here) [FITC-Oligo]
Percent Transfected (HUH-7 cells): 0%
